The target of one assay is T1, human GPBAR1 receptor (Homo sapiens, UniProt Q8TDU6).
T1 construct: expressed in transfected cells
T1 sequence (Q8TDU6 1-330): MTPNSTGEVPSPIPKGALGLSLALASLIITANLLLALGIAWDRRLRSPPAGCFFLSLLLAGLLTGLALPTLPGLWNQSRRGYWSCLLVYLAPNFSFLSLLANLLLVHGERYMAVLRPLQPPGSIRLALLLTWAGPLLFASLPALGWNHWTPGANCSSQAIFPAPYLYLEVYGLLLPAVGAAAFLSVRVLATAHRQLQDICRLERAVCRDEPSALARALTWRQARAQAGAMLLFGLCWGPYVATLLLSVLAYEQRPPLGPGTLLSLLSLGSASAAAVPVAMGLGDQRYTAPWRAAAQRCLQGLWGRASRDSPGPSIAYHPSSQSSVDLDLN
Kind of assay: functional cAMP assay in CHO-dhfr(minus) cells expressing human GPBAR1 receptors. It counts as cell-based. The conditions noted are these: functional cAMP assay, 30 min at 30° C., read-out: human EC50. The method, boiled down:
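Agonist cAMP read-out: stable GPBAR1 CHO-dhfr− clone, 30 min compound exposure at 30° C following 30 min IBMX (1 mM) preincubation in Krebs Ringer bicarbonate. Time-resolved energy-transfer detection gives EC50; parental CHO cells serve as counter-screen.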
A general note: Cyclic AMP is a second messenger, typically raised through Gs and lowered through Gi signalling.
In the case of `CCOC(=O)CCCNC(=O)c1ccc(C(C/C(=N\O)c2ccc(=O)n(C)c2)c2ccccc2C)cc1` (centres unmarked) [Example 212, 4-{4-[3-[(E)-Hydroxyimino]-3-(1-methyl-6-oxo-1,6-dihydro-pyridin-3-yl)-1-o-tolyl-propyl]-benzoylamino}-butyric acid ethyl ester], the EC50 is 153 nM.

The same assay, now with this note: human EC50, functional cAMP assay, 30 min at 30° C.
`Cc1cc(Cl)ccc1[C@H](C/C(=N\O)c1ccnc(CO)c1)c1ccc(Br)cc1` [Example 383, (R,E)-3-(4-Bromophenyl)-3-(4-chloro-2-methylphenyl)-1-(2-(hydroxymethyl)pyridin-4-yl)propan-1-one oxime] yielded an EC50 of 327 nM.

Compound `Cn1cc(/C(C[C@@H](c2ccc(-c3ccc(C(=O)O)c(F)c3)cc2)c2ccc(Cl)cc2F)=N/O)ccc1=O` (single isomer, unassigned) [Example 464, 4′-[(+)-1-(4-Chloro-2-fluoro-phenyl)-3-[(E)-hydroxyimino]-3-(1-methyl-6-oxo-1,6-dihydro-pyridin-3-yl)-propyl]-3-fluoro-biphenyl-4-carboxylic acid] displayed an EC50 of 152 nM.

The compound `Cn1cc(/C(CC(c2ccc(Br)cc2)c2ccccc2F)=N/O)ccc1=O` (centres unmarked) [Example 243, (E)-5-(3-(4-Bromophenyl)-3-(2-fluorophenyl)-1-(hydroxyimino)propyl)-1-methylpyridin-2(1H)-one] came in with an EC50 of 20 nM.

As for `Cc1ccccc1C(CC(=NO)c1ccncc1)c1ccc(C(=O)O)cc1` (racemic) [Example 70, 4-{3-[Hydroxyimino]-3-pyridin-4-yl-1-o-tolyl-propyl}-benzoic acid], the EC50 was found to be 2730 nM.

In turn, `Cc1cc(C(CC(c2ccc(CCCO)cc2)c2ccccc2C)=NO)ccn1` (racemic) [Example 88, 3-[4-(3-Hydroxy-propyl)-phenyl]-1-(2-methyl-pyridin-4-yl)-3-o-tolyl-propan-1-one oxime] came in with an EC50 of 12 nM.

`Cc1cc(F)ccc1C(C/C(=N\O)c1ccc(=O)n(C)c1)c1ccc(-c2ccc(NC(=O)CC(=O)O)cc2)cc1` (centres unmarked) [Example 400, N-{4′-[1-(4-Fluoro-2-methyl-phenyl)-3-[(E)-hydroxyimino]-3-(1-methyl-6-oxo-1,6-dihydro-pyridin-3-yl)-propyl]-biphenyl-4-yl}-malonamic acid] displayed an EC50 of 49 nM.

With `Cc1cc(/C(CC(c2cccc(CC(=O)O)c2)c2ccccc2C)=N/O)ccn1` (centres unmarked) [Example 105, {3-[3-[(E)-Hydroxyimino]-3-(2-methyl-pyridin-4-yl)-1-o-tolyl-propyl]-phenyl}-acetic acid], the midpoint of the response, the EC50, lay at 1020 nM.

Compound `Cc1ccccc1C(C/C(=N\O)c1cc(F)ccc1F)c1ccc(Br)cc1` (centres unmarked) [Example 52, (E)-3-(4-Bromo-phenyl)-1-(2,5-difluoro-phenyl)-3-o-tolyl-propan-1-one oxime] had an EC50 of 763 nM.

In the case of `Cc1cc(/C(CC(c2ccc(C(=O)NC(C)(C)CO)cc2)c2ccc(F)cc2F)=N/O)ccn1` (centres unmarked) [Example 435, 4-[1-(2,4-Difluoro-phenyl)-3-[(E)-hydroxyimino]-3-(2-methyl-pyridin-4-yl)-propyl]-N-(2-hydroxy-1,1-dimethyl-ethyl)-benzamide], the midpoint of the response, the EC50, lay at 66 nM.

Consider `Cc1cc(C(CC(c2ccc(C#CCCC(=O)O)cc2)c2ccccc2C)=NO)ccn1` (racemic) [Example 111, 5-{4-[3-[Hydroxyimino]-3-(2-methyl-pyridin-4-yl)-1-o-tolyl-propyl]-phenyl}-pent-4-ynoic acid], for which the EC50 was 27 nM.

For `Cc1cc(/C(C[C@H](c2ccc(-c3ccc(C(=O)O)c(F)c3)cc2)c2ccc(Cl)cc2F)=N/O)ccn1` (single isomer, unassigned) [Example 448, 4′-[(−)-1-(4-Chloro-2-fluoro-phenyl)-3-[(E)-hydroxyimino]-3-(2-methyl-pyridin-4-yl)-propyl]-3-fluoro-biphenyl-4-carboxylic acid], a half-maximal effect (EC50) was put at 18 nM.

In turn, `Cc1cc(/C(C[C@H](c2ccc(-c3cncnc3)cc2)c2ccccc2C)=N/O)ccn1` [Example 143, (E,R)-1-(2-Methyl-pyridin-4-yl)-3-(4-pyrimidin-5-yl-phenyl)-3-o-tolyl-propan-1-one oxime] gave an EC50 of 1 nM.

`Cc1ccccc1C(Cc1ccc(Br)cc1)/C(=N\O)c1ccncc1` (centres unmarked) [Example 44, (E)-3-(4-bromo-phenyl)-1-pyridin-4-yl-2-o-tolyl-propan-1-one oxime] showed an EC50 of 421 nM.

With `Cc1cc(/C(C[C@@H](c2ccc(N3CCC(C(=O)O)CC3)cc2)c2ccc(F)cc2F)=N/O)ccn1` (single isomer, unassigned) [Example 428, 1-{4-[(+)-1-(2,4-Difluoro-phenyl)-3-[(E)-hydroxyimino]-3-(2-methyl-pyridin-4-yl)-propyl]-phenyl}-piperidine-4-carboxylic acid], the EC50 was found to be 18 nM.

`Cc1ccccc1C(C/C(=N\O)c1ccc(=O)n(C)c1)c1ccc(C(=O)NC[C@@H](O)CO)cc1` (stereo partly drawn) [Example 307, N—((R)-2,3-Dihydroxypropyl)-4-((E)-3-(hydroxyimino)-3-(1-methyl-6-oxo-1,6-dihydro-pyridin-3-yl)-1-o-tolylpropyl)benzamide] registered a half-maximal effective concentration (EC50) of 116 nM.

For `Cc1ccccc1C(C/C(=N\O)c1cc(Cl)ccc1Cl)c1ccc(Br)cc1` (single isomer, unassigned; (+)) [Example 50, (+)-(E)-3-(4-Bromo-phenyl)-1-(2,5-dichloro-phenyl)-3-o-tolyl-propan-1-one oxime], a half-maximal response (EC50) required 769 nM.

Compound `Cn1cc(/C(CC(c2cccc(C(=O)NCCO)c2)c2ccc(Cl)cc2F)=N/O)ccc1=O` (centres unmarked) [Example 320, (E)-3-(1-(4-Chloro-2-fluorophenyl)-3-(hydroxyimino)-3-(1-methyl-6-oxo-1,6-dihydro-pyridin-3-yl)propyl)-N-(2-hydroxyethyl)benzamide] registered an EC50 of 3370 nM.

`Cc1ccccc1[C@H](C/C(=N\O)c1ccc(=O)n(C)c1)c1ccc(N2CCC(C(=O)O)CC2)cc1` [Example 497, Sodium (R,E)-1-(4-(3-(Hydroxyimino)-3-(1-methyl-6-oxo-1,6-dihydropyridin-3-yl)-1-o-tolylpropyl)phenyl)piperidine-4-carboxylate] came in with an EC50 of 41 nM.

`Cc1cc(/C(C[C@H](c2ccc(C3=CCN(C(=O)OC(C)(C)C)CC3)cc2)c2ccccc2C)=N/O)ccn1` [Example 372, (R)-tert-Butyl 4-(4-(3-(hydroxyimino)-3-(2-methylpyridin-4-yl)-1-o-tolylpropyl)phenyl)-5,6-dihydropyridine-1(2H)-carboxylate] came in with an EC50 of 134 nM.

Compound `Cc1ccccc1C(C/C(=N/O)c1ccncc1)c1ccc(-c2cncnc2)cc1` (single isomer, unassigned; (-)) [Example 37, (−)-(Z)-1-pyridin-4-yl-3-(4-pyrimidin-5-yl-phenyl)-3-o-tolyl-propan-1-one oxime] returned an EC50 of 2200 nM.

In turn, `Cc1cc(/C(C[C@H](c2ccc(-c3ccc(C(=O)O)cc3)cc2)c2ccccc2C)=N/O)cc(C)n1` [Example 294, 4′-{(R)-3-(2,6-Dimethyl-pyridin-4-yl)-3-[(E)-hydroxyimino]-1-o-tolyl-propyl}-biphenyl-4-carboxylic acid] gave an EC50 of 21 nM.

In the case of `Cc1cc(C(C=C(c2ccccc2)c2ccccc2)=NO)cc(C)n1` (mixture of isomers) [Example 66, 1-(2,6-Dimethyl-pyridin-4-yl)-3,3-diphenyl-propenone oxime], the EC50 amounted to 300 nM.

`Cc1cc(Cl)ccc1C(C/C(=N\O)c1ccc(=O)n(C)c1)c1ccc(Oc2ccc(Cl)c(C(=O)O)c2)c(F)c1` (centres unmarked) [Example 326, 2-Chloro-5-{4-[1-(4-chloro-2-methyl-phenyl)-3-[(E)-hydroxyimino]-3-(1-methyl-6-oxo-1,6-dihydro-pyridin-3-yl)-propyl]-2-fluoro-phenoxy}-benzoic acid] yielded an EC50 of 137 nM.

Regarding `Cc1cc(/C(C[C@H](c2ccc(-c3ccc(C(=O)O)cc3)cc2)c2ccc(F)cc2C)=N/O)ccn1` (single isomer, unassigned) [Example 397, (+)-4′-[1-(4-Fluoro-2-methyl-phenyl)-3-[(E)-hydroxyimino]-3-(2-methyl-pyridin-4-yl)-propyl]-biphenyl-4-carboxylic acid; compound with triethylamine 1:0.75], the EC50 turned out to be 17 nM.

Regarding `Cc1cc(/C(CC(c2ccc(-c3ccc(C(=O)O)cc3)cc2)c2ncccc2C)=N/O)ccn1` (centres unmarked) [Example 117, (E)-4′-[3-[Hydroxyimino]-3-(2-methyl-pyridin-4-yl)-1-(3-methyl-pyridin-2-yl)-propyl]-biphenyl-4-carboxylic acid], the EC50 amounted to 102 nM.

Compound `Cn1cc(/C(CC(c2ccc(Br)cc2)c2ccc(Cl)cc2F)=N/O)ccc1=O` (centres unmarked) [Example 237, 5-{3-(4-Bromo-phenyl)-3-(4-chloro-2-fluoro-phenyl)-1-[(E)-hydroxyimino]-propyl}-1-methyl-1H-pyridin-2-one] registered a half-maximal effective concentration (EC50) of 25 nM.

In the case of `Cc1cc(/C(CC(c2ccc(C(=O)NC3CCS(=O)(=O)CC3)cc2)c2ccc(F)cc2F)=N/O)ccn1` (centres unmarked) [Example 440, 4-[1-(2,4-Difluoro-phenyl)-3-[(E)-hydroxyimino]-3-(2-methyl-pyridin-4-yl)-propyl]-N-(1,1-dioxo-hexahydro-1λ^6-thiopyran-4-yl)-benzamide], the EC50 is 148 nM.

Take `O/N=C(\CC(c1ccccc1)c1cccc(Br)c1)c1ccncc1` (centres unmarked) [Example 12, (E)-3-(3-Bromo-phenyl)-3-phenyl-1-pyridin-4-yl-propan-1-one oxime]: the EC50 is 92 nM.

A word on the EC50: it is the concentration needed to bring the measured effect to its halfway point.

The values above are taken from patent US8765730B2 (Hoffmann-La Roche Inc, priority 2010, dated 2014).
